From ChEMBL document CHEMBL1126228, “2,3:18,19-dioxidosqualene: synthesis and activity as a potent inhibitor of 2,3-oxidosqualene-lanosterol cyclase in rat liver microsomes” (Bioorg Med Chem Lett, 1992)

Molecular target: T1, Lanosterol synthase (Rattus norvegicus, UniProt P48450)
T1 sequence (P48450 whole entry): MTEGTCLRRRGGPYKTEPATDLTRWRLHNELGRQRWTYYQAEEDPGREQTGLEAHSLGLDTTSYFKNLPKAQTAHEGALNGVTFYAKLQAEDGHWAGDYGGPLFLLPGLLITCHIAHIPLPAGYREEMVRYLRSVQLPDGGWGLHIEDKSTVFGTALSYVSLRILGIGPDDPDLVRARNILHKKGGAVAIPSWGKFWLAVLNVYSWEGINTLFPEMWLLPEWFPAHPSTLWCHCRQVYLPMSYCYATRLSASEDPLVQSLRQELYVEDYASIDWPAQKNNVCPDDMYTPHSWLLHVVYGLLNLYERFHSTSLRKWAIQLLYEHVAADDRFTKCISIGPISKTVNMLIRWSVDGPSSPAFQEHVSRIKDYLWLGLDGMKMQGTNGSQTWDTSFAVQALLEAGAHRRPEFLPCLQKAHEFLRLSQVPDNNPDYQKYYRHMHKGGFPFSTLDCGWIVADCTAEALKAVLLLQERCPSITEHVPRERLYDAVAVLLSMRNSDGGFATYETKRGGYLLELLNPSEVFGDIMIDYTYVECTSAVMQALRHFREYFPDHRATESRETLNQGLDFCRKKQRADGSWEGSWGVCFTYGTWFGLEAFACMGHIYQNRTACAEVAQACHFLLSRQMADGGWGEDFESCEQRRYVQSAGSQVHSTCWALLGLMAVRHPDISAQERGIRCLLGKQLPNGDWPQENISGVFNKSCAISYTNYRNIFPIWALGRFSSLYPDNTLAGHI
Assay: Compound was evaluated for inhibitory activity against 2,3-oxidosqualene-lanosterol cyclase in rat liver microsomes
Parameters: species or system Microsome

IC50 [µM] | Structure (SMILES)
0.11 | CC(C)=CCCC1(C)OC1CC/C(C)=C/CC/C=C(\C)CC/C=C(\C)CCC1OC1(C)C (stereo not drawn)
142 | C/C(=C\CC/C=C(\C)CC/C=C(\C)CCC1OC1(C)C)CC/C=C(\C)CCC1OC1(C)C (stereo not drawn)
83.5 | CC(C)=CCC/C(C)=C/CC/C(C)=C/CC/C=C(\C)CCC1OC1(C)CCC=C(C)C (stereo not drawn)
